Test results as given in patent publication US20140308313A1 (priority 2006, published 2014).

Tested on: IgG1 and IgG2a antibodies to TT
Parameters: species or system mice
Details: mouse, in vivo

SMILES: CCCCCCCCCCCCCCCCCCCCCCCCCC(=O)N[C@@H](CO[C@H]1OC(CO)[C@H](O)C(O)C1O)[C@H](O)[C@@H](O)CCCCCCCCCCCCCC (stereo partly drawn) [α-GC, α-galactosylceramide]
- production of IgG1 and IgG2a antibodies compared to CFA, CpG, MF59 and Alum: overall as potent as the above benchmark adjuvants
